Calls of active or inactive are those of the source.
How the values were obtained:
[1] = target: ATP-dependent molecular chaperone HSP82 (Candida albicans (strain WO-1) (Yeast), UniProt C4YTQ8); test: steroid-induced GRE reporter decrease in yeast – S. cerevisiae, luminescence, Hsp90 inhibitor project, dose response (AID 2400); format: functional, cell-based;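 further: beta-galactosidase luminescence from glucocorticoid response element reporter as proxy for Hsp90 function; inhibitor potency where signal loss means Hsp90 inhibition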
Chain of ATP-dependent molecular chaperone HSP82 (C4YTQ8 whole entry): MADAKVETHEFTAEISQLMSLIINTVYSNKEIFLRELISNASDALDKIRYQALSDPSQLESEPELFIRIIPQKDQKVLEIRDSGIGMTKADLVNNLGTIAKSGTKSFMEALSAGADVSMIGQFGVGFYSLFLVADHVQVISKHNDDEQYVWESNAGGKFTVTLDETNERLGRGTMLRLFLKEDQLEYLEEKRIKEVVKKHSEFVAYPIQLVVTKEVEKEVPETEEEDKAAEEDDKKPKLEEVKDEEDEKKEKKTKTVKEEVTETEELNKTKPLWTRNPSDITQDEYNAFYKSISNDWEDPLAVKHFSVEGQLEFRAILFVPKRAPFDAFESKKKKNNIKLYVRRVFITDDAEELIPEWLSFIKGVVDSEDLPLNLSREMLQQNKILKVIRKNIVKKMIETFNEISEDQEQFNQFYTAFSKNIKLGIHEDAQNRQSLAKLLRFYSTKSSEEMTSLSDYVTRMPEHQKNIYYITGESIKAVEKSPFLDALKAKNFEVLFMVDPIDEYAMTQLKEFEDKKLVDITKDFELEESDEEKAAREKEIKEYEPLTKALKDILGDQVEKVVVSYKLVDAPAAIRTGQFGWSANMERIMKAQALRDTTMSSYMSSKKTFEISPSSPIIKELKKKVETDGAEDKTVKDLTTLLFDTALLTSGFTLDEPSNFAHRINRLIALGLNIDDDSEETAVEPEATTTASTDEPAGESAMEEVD

Caspase-6 = Caspase-6 (Homo sapiens, UniProt P55212); test: inhibition of CASP6 peptide cleavage – biochemical, VEID-R110 fluorescence, cherry-pick, dose response (AID 720632)
Chain of Caspase-6 (P55212 24-179 limits assumed): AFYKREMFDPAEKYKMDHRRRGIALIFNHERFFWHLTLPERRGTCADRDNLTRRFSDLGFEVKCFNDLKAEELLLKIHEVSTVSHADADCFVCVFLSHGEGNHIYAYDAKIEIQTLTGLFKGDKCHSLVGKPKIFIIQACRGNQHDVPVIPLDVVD
Chain of Caspase-6 (P55212 194-293 limits assumed): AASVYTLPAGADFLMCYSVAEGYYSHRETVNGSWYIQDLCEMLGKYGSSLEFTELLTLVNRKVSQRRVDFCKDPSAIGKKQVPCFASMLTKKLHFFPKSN

[2] = Counterscreen for AddAB inhibitors: absorbance-based bacterial cell-based high throughput dose response assay for inhibitors of bacterial viability. [Related pubchem assays (depositor defined):AID435030, AID449728, AID449731, AID488942, AID488955, AID488956]; format: functional
[3] = target: T1, Replicative DNA helicase DnaB (Mycobacterium tuberculosis, UniProt P9WMR3); test: DnaB intein splicing inhibitors, dose response, biochemical, cell-free fluorescence (AID 449749); format: functional
T1 sequence (P9WMR3 whole entry): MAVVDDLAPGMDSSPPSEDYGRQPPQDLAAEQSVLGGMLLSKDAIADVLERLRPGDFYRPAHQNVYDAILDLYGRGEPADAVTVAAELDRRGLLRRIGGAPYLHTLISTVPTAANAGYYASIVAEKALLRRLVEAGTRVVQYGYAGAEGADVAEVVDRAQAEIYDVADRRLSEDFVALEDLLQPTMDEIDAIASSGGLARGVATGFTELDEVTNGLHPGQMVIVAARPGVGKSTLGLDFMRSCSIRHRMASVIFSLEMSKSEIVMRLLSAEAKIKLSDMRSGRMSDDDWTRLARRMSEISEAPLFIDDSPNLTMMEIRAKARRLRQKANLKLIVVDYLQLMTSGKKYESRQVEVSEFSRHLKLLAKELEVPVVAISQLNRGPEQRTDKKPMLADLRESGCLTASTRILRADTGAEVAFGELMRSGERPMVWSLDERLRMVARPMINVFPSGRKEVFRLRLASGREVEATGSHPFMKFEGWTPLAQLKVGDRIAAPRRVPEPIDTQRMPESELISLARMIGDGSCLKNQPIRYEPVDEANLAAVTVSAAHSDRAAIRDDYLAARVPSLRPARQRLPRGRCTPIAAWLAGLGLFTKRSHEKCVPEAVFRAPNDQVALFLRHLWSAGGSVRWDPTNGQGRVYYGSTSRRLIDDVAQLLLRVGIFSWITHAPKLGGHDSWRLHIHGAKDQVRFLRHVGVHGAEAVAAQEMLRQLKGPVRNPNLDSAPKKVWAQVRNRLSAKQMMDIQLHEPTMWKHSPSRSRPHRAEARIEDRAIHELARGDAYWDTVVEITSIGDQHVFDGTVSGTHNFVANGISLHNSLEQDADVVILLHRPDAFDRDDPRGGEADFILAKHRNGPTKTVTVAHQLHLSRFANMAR

Beta-galactosidase = Beta-galactosidase (Escherichia coli, UniProt Q8VNN2); test: detection-enzyme interference by beta-gal modulators – biochemical, E. coli enzyme, set 3, artefact control for CCR6 antagonist project, dose response (AID 504712); format: functional
Chain of Beta-galactosidase (Q8VNN2 whole entry): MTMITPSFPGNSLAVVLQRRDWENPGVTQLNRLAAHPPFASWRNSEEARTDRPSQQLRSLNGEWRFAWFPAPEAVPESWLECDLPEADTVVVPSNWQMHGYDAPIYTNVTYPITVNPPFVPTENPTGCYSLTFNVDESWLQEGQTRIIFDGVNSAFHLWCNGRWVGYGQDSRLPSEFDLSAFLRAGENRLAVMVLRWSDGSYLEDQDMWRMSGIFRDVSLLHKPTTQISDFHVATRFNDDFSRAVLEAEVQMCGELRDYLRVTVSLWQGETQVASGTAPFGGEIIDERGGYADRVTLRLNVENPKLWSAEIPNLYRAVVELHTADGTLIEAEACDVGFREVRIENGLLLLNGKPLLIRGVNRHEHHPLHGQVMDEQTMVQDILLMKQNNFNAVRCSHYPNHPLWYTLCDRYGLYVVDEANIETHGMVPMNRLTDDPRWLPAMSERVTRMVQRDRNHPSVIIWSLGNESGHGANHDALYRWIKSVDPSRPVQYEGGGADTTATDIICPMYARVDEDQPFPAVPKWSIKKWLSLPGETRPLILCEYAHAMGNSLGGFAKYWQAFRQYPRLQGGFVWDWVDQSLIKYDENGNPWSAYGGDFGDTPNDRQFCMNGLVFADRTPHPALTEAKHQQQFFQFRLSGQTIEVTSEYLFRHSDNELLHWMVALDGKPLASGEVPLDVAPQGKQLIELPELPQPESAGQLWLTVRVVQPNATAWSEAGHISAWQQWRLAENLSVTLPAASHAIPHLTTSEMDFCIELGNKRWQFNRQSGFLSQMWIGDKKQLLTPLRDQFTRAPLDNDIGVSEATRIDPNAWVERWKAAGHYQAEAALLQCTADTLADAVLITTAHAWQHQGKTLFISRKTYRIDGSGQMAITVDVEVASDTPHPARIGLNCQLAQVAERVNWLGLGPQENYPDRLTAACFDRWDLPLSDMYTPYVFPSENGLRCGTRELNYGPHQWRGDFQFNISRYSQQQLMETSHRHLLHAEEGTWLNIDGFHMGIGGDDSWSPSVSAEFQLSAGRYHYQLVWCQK

[4] = target: T2, C-C chemokine receptor type 6 (Homo sapiens, UniProt P51684); test: antagonism of CCR6 beta-arrestin recruitment – cell-based, luminescent beta-arrestin readout, dose response (AID 504728); format: functional
T2 sequence (P51684 whole entry): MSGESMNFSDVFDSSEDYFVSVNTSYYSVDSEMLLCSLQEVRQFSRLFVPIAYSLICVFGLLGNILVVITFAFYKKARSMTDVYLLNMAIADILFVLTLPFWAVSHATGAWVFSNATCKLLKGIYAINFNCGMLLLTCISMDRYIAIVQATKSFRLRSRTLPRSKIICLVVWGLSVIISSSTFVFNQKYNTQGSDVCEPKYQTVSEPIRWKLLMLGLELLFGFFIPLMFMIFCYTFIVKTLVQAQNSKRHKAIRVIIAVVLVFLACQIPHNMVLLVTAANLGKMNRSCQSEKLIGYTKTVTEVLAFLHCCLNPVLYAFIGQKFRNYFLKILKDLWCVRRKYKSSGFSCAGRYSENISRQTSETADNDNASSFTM

[5] = NIH-3T3 fibroblast cytotoxicity, dose response, cytotoxicity control, cell-based, fluorescence, Alamar Blue, secondary assay (AID 2327); format: functional;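 further: NIH-3T3 mouse fibroblasts cultured with fluconazole at 8 µg/mL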
Exodeoxyribonuclease V = Exodeoxyribonuclease V (Escherichia coli (strain K12), UniProt P04993+P07648+P08394); test: RecBCD inhibition via phage-restricted bacterial growth – absorbance, V66 E. coli, mutant T4 phage, counter-screen for AddAB inhibitor project, dose response (AID 492957); format: functional, cell-based, Escherichia coli str. K-12 substr. MG1655
Protein RecA = target: T3, Protein RecA (Mycobacterium tuberculosis, UniProt P9WHJ3); test: Fluorescence Cell-Free Homogeneous Dose Retest to Identify Inhibitors of RecA-Intein Splicing Activity. [Related pubchem assays (depositor defined):AID2097, AID2223, AID489010, AID492950]; format: functional
T3 sequence (P9WHJ3 whole entry): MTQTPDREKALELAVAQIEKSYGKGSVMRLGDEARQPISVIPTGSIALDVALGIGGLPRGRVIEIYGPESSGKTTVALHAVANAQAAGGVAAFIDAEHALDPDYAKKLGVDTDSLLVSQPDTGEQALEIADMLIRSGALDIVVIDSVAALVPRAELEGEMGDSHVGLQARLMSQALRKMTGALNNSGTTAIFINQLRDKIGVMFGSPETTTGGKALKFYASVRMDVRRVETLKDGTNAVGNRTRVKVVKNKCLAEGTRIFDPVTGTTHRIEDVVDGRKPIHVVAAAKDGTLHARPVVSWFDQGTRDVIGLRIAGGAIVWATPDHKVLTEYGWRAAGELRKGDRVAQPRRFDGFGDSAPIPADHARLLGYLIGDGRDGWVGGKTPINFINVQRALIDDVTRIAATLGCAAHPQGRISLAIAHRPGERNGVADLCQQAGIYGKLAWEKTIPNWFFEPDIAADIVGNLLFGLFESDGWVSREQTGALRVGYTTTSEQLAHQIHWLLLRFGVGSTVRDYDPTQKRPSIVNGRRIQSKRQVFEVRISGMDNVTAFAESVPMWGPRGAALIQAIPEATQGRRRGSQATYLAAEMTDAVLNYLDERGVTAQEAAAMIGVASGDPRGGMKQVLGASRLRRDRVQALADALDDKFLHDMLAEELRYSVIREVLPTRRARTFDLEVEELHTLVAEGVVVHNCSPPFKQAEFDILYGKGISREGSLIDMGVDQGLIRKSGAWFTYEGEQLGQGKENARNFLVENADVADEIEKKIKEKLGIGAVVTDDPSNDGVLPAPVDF

[6] = target: Serine/threonine-protein phosphatase (Candida dubliniensis (strain CD36 / CBS 7987 / NCPF 3949 / NRRLY-17841) (Yeast), UniProt B9W6M3); test: blockers of CaCl2-induced CDRE-lacZ signaling – S. cerevisiae, luminescence, secondary, dose response (AID 2388); format: functional, cell-based;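 further: yeast reporter cells carrying a calcineurin-responsive lacZ construct stimulated with calcium chloride; luminescent beta-galactosidase reporter signal in whole cells rather than isolated phosphatase activity; potency for inhibition where a drop in reporter signal means calcineurin blockade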
Chain of Serine/threonine-protein phosphatase (B9W6M3 whole entry): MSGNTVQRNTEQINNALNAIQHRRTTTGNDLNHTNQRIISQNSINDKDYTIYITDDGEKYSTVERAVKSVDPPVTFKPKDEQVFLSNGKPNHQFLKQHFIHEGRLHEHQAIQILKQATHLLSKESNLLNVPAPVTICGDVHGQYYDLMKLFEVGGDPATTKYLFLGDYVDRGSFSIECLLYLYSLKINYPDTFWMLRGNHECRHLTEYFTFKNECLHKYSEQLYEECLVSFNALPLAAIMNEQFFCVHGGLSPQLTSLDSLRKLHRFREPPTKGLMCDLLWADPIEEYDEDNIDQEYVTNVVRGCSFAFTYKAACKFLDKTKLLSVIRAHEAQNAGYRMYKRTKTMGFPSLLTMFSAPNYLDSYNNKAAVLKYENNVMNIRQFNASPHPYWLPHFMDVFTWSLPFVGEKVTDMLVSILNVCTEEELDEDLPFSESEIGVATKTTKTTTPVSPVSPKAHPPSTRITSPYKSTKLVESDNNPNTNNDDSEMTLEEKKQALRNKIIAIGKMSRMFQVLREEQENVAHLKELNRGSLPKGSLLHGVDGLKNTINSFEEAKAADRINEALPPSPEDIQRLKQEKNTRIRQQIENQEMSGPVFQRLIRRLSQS

[7] = fluconazole-exposed Candida albicans growth modulators – fluorescence, retest, confirmation (AID 2467); format: functional, cell-based
[8] = target: Voltage-gated inwardly rectifying potassium channel KCNH2 (Homo sapiens, UniProt Q12809); details: Potency;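 further: confirmatory quantitative high-throughput screen measuring inhibition of hERG channel activity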
Chain of Voltage-gated inwardly rectifying potassium channel KCNH2 (Q12809 whole entry): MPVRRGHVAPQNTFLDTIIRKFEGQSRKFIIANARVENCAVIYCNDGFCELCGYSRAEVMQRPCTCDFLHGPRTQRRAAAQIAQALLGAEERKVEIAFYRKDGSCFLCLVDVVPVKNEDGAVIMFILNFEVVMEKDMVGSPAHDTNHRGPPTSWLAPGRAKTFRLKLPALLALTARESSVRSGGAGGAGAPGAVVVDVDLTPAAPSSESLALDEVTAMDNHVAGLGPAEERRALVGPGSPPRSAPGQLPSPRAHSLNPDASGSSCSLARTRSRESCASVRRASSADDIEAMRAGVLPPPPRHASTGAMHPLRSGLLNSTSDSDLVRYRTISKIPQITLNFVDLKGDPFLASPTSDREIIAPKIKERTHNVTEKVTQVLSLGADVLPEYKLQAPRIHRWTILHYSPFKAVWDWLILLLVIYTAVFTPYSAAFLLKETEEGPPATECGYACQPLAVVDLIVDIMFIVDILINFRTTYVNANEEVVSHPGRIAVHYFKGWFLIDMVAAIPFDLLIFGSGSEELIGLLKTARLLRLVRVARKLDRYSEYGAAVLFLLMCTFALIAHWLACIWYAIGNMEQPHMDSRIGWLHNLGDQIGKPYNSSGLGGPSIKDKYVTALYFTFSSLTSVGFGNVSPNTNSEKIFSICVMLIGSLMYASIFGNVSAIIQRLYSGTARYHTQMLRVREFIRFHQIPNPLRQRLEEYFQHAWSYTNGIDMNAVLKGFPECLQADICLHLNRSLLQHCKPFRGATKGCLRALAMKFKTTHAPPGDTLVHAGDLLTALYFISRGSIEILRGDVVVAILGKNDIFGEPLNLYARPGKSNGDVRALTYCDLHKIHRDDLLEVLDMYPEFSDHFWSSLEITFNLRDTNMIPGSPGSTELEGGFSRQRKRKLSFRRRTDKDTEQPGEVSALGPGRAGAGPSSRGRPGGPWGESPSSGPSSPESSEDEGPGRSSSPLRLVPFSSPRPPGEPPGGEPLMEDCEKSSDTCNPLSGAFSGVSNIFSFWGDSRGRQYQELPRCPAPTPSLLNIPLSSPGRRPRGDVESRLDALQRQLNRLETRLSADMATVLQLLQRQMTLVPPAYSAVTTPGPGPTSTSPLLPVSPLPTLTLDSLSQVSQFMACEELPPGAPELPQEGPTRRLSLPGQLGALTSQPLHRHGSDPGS

[9] = Trypanosoma cruzi growth suppression in host cells – NIH3T3 host cells, beta-gal luminescence, confirmation (AID 2044); format: functional, cell-based;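 further: intracellular parasites grown in NIH/3T3 mouse fibroblasts as host cells; luminescent beta-galactosidase reporter signal from transgenic T. cruzi replicating inside host cells; inhibitors lower the luminescence signal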
[10] = non-specific 3'UTR reporter inhibition in Clone20-Shn3RL – cell-based, Renilla luciferase, cherry-picked, counter-screen for Shn3 inhibitor project, dose response (AID 624133); format: functional
[11] = THP-1 cell cytotoxicity, dose response, cytotoxicity control for non-replicating M. tuberculosis project (AID 489025); format: functional
[12] = target: 5-hydroxytryptamine receptor 5A (Homo sapiens, UniProt P47898); test: Counterscreen for agonists of OPRM1-OPRD1 heterodimerization: luminescence-based cell-based high throughput dose response assay to identify agonists of 5-hydroxytryptamine (serotonin) 5A receptor (HTR5A). [Related pubchem assays (depositor defined):AID504326, AID504355, AID504692, AID504904, AID504905]; format: functional
Chain of 5-hydroxytryptamine receptor 5A (P47898 whole entry): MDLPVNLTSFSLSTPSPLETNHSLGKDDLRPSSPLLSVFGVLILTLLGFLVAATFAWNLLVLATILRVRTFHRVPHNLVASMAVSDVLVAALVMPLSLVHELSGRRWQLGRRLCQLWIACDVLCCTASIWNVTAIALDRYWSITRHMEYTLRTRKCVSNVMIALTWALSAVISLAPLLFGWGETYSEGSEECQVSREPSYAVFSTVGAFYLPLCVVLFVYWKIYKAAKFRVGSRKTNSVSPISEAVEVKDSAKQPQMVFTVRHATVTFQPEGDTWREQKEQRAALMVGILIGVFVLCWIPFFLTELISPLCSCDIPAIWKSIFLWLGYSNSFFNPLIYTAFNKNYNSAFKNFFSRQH

[13] = HepG2 cell cytotoxicity, dose response, cytotoxicity control for non-replicating M. tuberculosis project (AID 489018); format: functional; details: Mycobacterium tuberculosis
[14] = NIH3T3 cell viability loss – ATP luminescence, mouse fibroblasts, counter-screen, dose response (AID 2010); format: functional, cell-based;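 further: cells exposed to compound for about 90 hours before reading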
[15] = target: Delta-type opioid receptor (Homo sapiens, UniProt P41143); test: Counterscreen for agonists of heterodimerization of the mu 1 (OPRM1) and delta 1 (OPRD1) opioid receptors: Luminescence-based cell-based high throughput dose response assay to identify agonists of OPRD1 homodimerization. [Related pubchem assays (depositor defined):AID504326, AID504355, AID504692, AID504904, AID504905]; format: functional
Chain of Delta-type opioid receptor (P41143 whole entry): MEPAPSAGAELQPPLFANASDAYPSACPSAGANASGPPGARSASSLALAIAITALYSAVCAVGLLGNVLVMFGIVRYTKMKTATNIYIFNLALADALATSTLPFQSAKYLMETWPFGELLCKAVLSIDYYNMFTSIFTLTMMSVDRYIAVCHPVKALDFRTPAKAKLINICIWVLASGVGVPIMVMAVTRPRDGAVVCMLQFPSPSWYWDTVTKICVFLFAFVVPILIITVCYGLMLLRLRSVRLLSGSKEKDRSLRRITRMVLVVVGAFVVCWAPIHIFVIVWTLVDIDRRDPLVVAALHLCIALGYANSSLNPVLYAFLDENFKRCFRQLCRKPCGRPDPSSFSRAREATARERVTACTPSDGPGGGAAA

[16] = reduction of Shn3 3'UTR-driven luciferase in osteoblasts – cell-based, Clone20 osteoblasts, firefly luciferase, cherry-picked, dose response (AID 624132); format: functional;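 further: firefly luciferase luminescence from reporter carrying the Shn3 3'UTR in osteoblasts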
[17] = Vero E6 cell cytotoxicity, dose response, cytotoxicity control for non-replicating M. tuberculosis project, secondary assay (AID 492998); format: functional, VeroE6; details: Vero C1008
Mu-type opioid receptor = Mu-type opioid receptor (Homo sapiens, UniProt P35372); test: Counterscreen for agonists of heterodimerization of the mu 1 (OPRM1) and delta 1 (OPRD1) opioid receptors: Luminescence-based cell-based high throughput dose response assay to identify agonists of OPRM1 homodimerization.; format: functional;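 further: U2OS cells expressing OPRM1 and beta-arrestin as split beta-galactosidase partners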
Chain of Mu-type opioid receptor (P35372 whole entry): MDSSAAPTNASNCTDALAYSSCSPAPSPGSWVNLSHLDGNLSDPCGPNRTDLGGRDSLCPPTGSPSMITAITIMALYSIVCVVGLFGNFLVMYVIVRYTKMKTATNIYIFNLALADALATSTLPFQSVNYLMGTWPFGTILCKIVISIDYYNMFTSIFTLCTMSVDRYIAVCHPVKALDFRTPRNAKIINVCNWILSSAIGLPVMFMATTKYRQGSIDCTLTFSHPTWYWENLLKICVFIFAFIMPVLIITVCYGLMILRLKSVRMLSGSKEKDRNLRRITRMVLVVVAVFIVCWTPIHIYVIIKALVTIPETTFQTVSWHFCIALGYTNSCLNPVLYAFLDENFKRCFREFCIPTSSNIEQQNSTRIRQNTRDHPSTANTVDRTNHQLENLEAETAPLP

[18] = target: T4, Short transient receptor potential channel 4 (Mus musculus, UniProt Q9QUQ5); test: block of DAMGO-driven TRPC4 calcium entry – cell-based, HEK293 TRPC4/mu-opioid, Fluo-4 calcium, dose response (AID 434942); format: functional;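 further: potency of inhibitors blocking the TRPC4 calcium response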
T4 sequence (Q9QUQ5 whole entry): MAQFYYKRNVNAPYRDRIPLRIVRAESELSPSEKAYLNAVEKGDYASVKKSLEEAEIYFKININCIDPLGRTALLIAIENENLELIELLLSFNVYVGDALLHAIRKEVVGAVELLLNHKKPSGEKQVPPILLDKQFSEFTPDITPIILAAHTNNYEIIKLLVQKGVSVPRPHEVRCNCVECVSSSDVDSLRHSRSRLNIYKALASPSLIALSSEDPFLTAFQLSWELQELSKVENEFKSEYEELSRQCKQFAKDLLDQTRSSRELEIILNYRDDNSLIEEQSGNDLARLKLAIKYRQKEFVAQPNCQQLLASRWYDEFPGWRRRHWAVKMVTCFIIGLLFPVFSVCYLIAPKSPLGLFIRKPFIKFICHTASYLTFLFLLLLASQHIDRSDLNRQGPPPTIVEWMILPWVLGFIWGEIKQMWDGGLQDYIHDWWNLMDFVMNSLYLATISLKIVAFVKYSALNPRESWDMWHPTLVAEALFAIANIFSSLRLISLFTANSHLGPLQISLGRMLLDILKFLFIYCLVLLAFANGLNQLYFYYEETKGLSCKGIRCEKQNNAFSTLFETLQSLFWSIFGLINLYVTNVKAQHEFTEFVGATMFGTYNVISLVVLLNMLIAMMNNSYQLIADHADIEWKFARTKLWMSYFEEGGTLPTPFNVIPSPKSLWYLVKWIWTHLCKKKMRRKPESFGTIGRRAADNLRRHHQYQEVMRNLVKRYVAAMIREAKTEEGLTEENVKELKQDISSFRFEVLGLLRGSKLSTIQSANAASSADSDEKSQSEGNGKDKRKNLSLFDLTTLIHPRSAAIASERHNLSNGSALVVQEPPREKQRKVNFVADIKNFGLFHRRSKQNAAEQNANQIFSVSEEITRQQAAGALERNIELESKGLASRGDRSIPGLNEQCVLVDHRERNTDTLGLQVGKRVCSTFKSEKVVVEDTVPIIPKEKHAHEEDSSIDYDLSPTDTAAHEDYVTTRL

[19] = target: T4, Short transient receptor potential channel 4; test: calcium entry via TRPC4 opening agents – cell-based, HEK293 TRPC4/mu-opioid, Fluo-4 calcium, dose response (AID 434937); format: functional
[20] = loss of viability in HepG2 cells – cell-based, CellTiter-Glo, cherry-picked, cytotoxicity control for Shn3 inhibitor project, dose response (AID 624134); format: functional
cells = format: functional
HeLa = test: ATP-based viability loss in HeLa cells – cell-based, CellTiter-Glo luminescence, cherry-pick samples, cytotoxicity control for MITF activator project, dose response (AID 540259); format: functional; details: Homo sapiens

## O=[N+]([O-])c1cc(O)c2ncccc2c1
[1]
  EC50: 18.5 µM (active)
Caspase-6
  AC50: 17.3 µM (active)
[2]
  IC50: 41.5 µM (inactive)
[3]
  AC50: 6.95 µM (active)
Beta-galactosidase
  IC50: > 66.6 µM (inactive)
[4]
  IC50: > 66.6 µM (inactive)
[5]
  EC50: 42.1 µM (active)
Exodeoxyribonuclease V
  IC50: 62.3 µM (inactive)
Protein RecA
  EC50: 4.6 µM (active)
[6]
  EC50: > 180 µM (inactive)
[7]
  EC50: 0.706 µM (active)

## CCN=C(S)NNC(=O)c1cc(-c2cc(C)ccc2C)nc2ccccc12
[1]
  EC50: > 150 µM (inactive)
[5]
  EC50: 129 µM (active)
[6]
  EC50: > 180 µM (inactive)
[7]
  EC50: 0.296 µM (active)

## Cc1cccc(C)c1OCC(N)C(C)C (stereo not drawn)
[8]
  AC50: 35.5 µM (inconclusive)

## Cc1ccccc1OCC(O)Cn1c(=N)n(Cc2ccccc2)c2ccccc21 (stereo not drawn)
[9]
  EC50: 2.75 µM (active)
[10]
  AC50: 1.49 µM (active)
[11]
  CC50: 7.48 µM (active)
[12]
  EC50: > 92.5 µM (inactive)
[13]
  CC50: 8.06 µM (active)
[14]
  EC50: > 30 µM (not active)
[15]
  EC50: > 92.5 µM (inactive)
[16]
  AC50: 2.25 µM (active)
[17]
  CC50: 19.9 µM (active)
Mu-type opioid receptor
  EC50: > 92.5 µM (inactive)
[18]
  EC50: 1.06 µM (active)
[19]
  EC50: 3.35 µM (active)
[20]
  AC50: 11.2 µM (active)
cells
  IC50: 18.5 µM (active)

## CCCCNCC
[8]
  AC50: 31.6 µM (inconclusive)

## COc1ccc(-c2nnc(-c3ccc4ccccc4c3)o2)cc1
HeLa
  AC50: > 350 µM (inactive)

## Nc1ccc(CSc2ccc(Cl)cc2)c(Cl)c1
HeLa
  AC50: 75.6 µM (active)
